Reference: PubChem BioAssay (NCI)
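These data come from cells grown in 96-well plates and exposed to compound for 48 hours at five concentrations. At the GI50, growth is halved. TGI: concentration producing complete growth inhibition.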

What was measured:
Assay in all cases: NCI tumour cell line growth inhibition, 48 h
SK-MEL-2 melanoma = system: SK-MEL-2 melanoma
IGROV1 ovarian = system: IGROV1 ovarian
HOP-92 NSCLC = system: HOP-92 NSCLC
SNB-75 CNS = system: SNB-75 CNS
CAKI-1 renal = system: CAKI-1 renal
MCF7 breast = system: MCF7 breast
MDA-MB-231 breast = system: MDA-MB-231 breast
DU-145 prostate = system: DU-145 prostate
HOP-62 NSCLC = system: HOP-62 NSCLC
SF-539 CNS = system: SF-539 CNS
UO-31 renal = system: UO-31 renal
NCI-H522 lung = system: NCI-H522 lung
MDA-MB-435 = system: MDA-MB-435
OVCAR-5 ovarian = system: OVCAR-5 ovarian
LOX IMVI melanoma = system: LOX IMVI melanoma
K-562 leukemia = system: K-562 leukemia
NCI-H226 lung = system: NCI-H226 lung
T-47D breast = system: T-47D breast
PC-3 prostate = system: PC-3 prostate
M14 melanoma = system: M14 melanoma
SNB-19 CNS = system: SNB-19 CNS
HT29 colon = system: HT29 colon
HS 578T breast = system: HS 578T breast
SK-OV-3 ovarian = system: SK-OV-3 ovarian
ACHN renal = system: ACHN renal
SF-295 CNS = system: SF-295 CNS
HCT-15 colon = system: HCT-15 colon
CCRF-CEM leukemia = system: CCRF-CEM leukemia
EKVX NSCLC = system: EKVX NSCLC
NCI/ADR-RES ovarian = system: NCI/ADR-RES ovarian
NCI-H460 lung = system: NCI-H460 lung
SF-268 CNS = system: SF-268 CNS
MALME-3M melanoma = system: MALME-3M melanoma
SR leukemia = system: SR leukemia
KM12 colon = system: KM12 colon
MOLT-4 leukemia = system: MOLT-4 leukemia
OVCAR-3 ovarian = system: OVCAR-3 ovarian
SK-MEL-28 melanoma = system: SK-MEL-28 melanoma
SW-620 colon = system: SW-620 colon
786-0 renal = system: 786-0 renal
COLO 205 colon = system: COLO 205 colon
TK-10 renal = system: TK-10 renal
HCT-116 colon = system: HCT-116 colon
UACC-257 melanoma = system: UACC-257 melanoma
OVCAR-4 ovarian = system: OVCAR-4 ovarian
RPMI-8226 leukemia = system: RPMI-8226 leukemia
RXF 393 renal = system: RXF 393 renal
SK-MEL-5 melanoma = system: SK-MEL-5 melanoma
NCI-H23 lung = system: NCI-H23 lung
OVCAR-8 ovarian = system: OVCAR-8 ovarian
HL-60(TB) leukemia = system: HL-60(TB) leukemia
UACC-62 melanoma = system: UACC-62 melanoma
SN12C renal = system: SN12C renal
U251 CNS = system: U251 CNS
A549 NSCLC = system: A549 NSCLC

O=c1[nH]cnc2sc(=S)c3c(c12)CCC3
TGI (SK-MEL-2 melanoma): > 100 µM | TGI (IGROV1 ovarian): > 100 µM | TGI (HOP-92 NSCLC): 66.3 µM | TGI (SNB-75 CNS): > 100 µM | TGI (CAKI-1 renal): 49.4 µM | TGI (MCF7 breast): > 100 µM | TGI (MDA-MB-231 breast): > 100 µM | TGI (DU-145 prostate): > 100 µM | TGI (HOP-62 NSCLC): > 100 µM | TGI (SF-539 CNS): > 100 µM | TGI (UO-31 renal): > 100 µM | TGI (NCI-H522 lung): 41.8 µM | TGI (MDA-MB-435): > 100 µM | TGI (OVCAR-5 ovarian): > 100 µM | TGI (LOX IMVI melanoma): > 100 µM | TGI (K-562 leukemia): 29.2 µM | TGI (NCI-H226 lung): 72.7 µM | TGI (T-47D breast): > 100 µM | TGI (PC-3 prostate): > 100 µM | TGI (M14 melanoma): > 100 µM | TGI (SNB-19 CNS): > 100 µM | TGI (HT29 colon): > 100 µM | TGI (HS 578T breast): > 100 µM | TGI (SK-OV-3 ovarian): > 100 µM | TGI (ACHN renal): 33.6 µM | TGI (SF-295 CNS): > 100 µM | TGI (HCT-15 colon): 91.4 µM | TGI (CCRF-CEM leukemia): 49 µM | TGI (EKVX NSCLC): > 100 µM | TGI (NCI/ADR-RES ovarian): > 100 µM | TGI (NCI-H460 lung): > 100 µM | TGI (SF-268 CNS): > 100 µM | TGI (MALME-3M melanoma): 98.2 µM | TGI (SR leukemia): 35.5 µM | TGI (KM12 colon): > 100 µM | TGI (MOLT-4 leukemia): 41.2 µM | TGI (OVCAR-3 ovarian): 53.2 µM | TGI (SK-MEL-28 melanoma): > 100 µM | TGI (SW-620 colon): 49.2 µM | TGI (786-0 renal): 33.3 µM | TGI (COLO 205 colon): 62.7 µM | TGI (TK-10 renal): 61.9 µM | TGI (HCT-116 colon): > 100 µM | TGI (UACC-257 melanoma): 94 µM | TGI (OVCAR-4 ovarian): > 100 µM | TGI (RPMI-8226 leukemia): 43 µM | TGI (RXF 393 renal): 63.4 µM | TGI (SK-MEL-5 melanoma): 42.1 µM | TGI (NCI-H23 lung): 62.8 µM | TGI (OVCAR-8 ovarian): > 100 µM | TGI (HL-60(TB) leukemia): 57.6 µM | TGI (UACC-62 melanoma): > 100 µM | TGI (SN12C renal): > 100 µM | TGI (U251 CNS): > 100 µM | TGI (A549 NSCLC): > 100 µM

N=C(N)c1ccc(-c2ccc(-c3ccc(Cl)cc3)s2)nc1
GI50 (SK-MEL-2 melanoma): 2.21 µM | TGI (SK-MEL-2 melanoma): 4.89 µM | GI50 (MDA-MB-231 breast): 1.35 µM | TGI (MDA-MB-231 breast): 2.74 µM | GI50 (DU-145 prostate): 1.7 µM | TGI (DU-145 prostate): 3.07 µM | GI50 (MDA-MB-435): 1.65 µM | TGI (MDA-MB-435): 3.02 µM | GI50 (OVCAR-5 ovarian): 1.56 µM | TGI (OVCAR-5 ovarian): 2.9 µM | GI50 (T-47D breast): 1.82 µM | TGI (T-47D breast): 4.49 µM | GI50 (SK-OV-3 ovarian): 3.56 µM | TGI (SK-OV-3 ovarian): 18.1 µM | GI50 (ACHN renal): 1.65 µM | TGI (ACHN renal): 3 µM | GI50 (SK-MEL-28 melanoma): 1.62 µM | TGI (SK-MEL-28 melanoma): 2.97 µM | GI50 (OVCAR-4 ovarian): 1.64 µM | TGI (OVCAR-4 ovarian): 3.06 µM
